The test system of one series is HCT 116. As to the kind of experiment: MTT cell proliferation assay. It is filed as cell-based. To be noted: Homo sapiens, HCT-116, 48 h, HCT 116 colon cancer, 48 h of drug treatment. The protocol:
(§1) The cell lines used in study were initially procured from the National Centre for Cell Sciences (NCCS), Pune, India, and maintained in DMEM. The cell line was cultured in 25 cm^2 tissue culture flask with DMEM supplemented with 10% FBS, sodium bicarbonate, L-glutamine, and antibiotic solution containing: streptomycin (100 μg/ml), penicillin (100 U/ml). Cultured cell line was kept at 37 °C in a humidified 5% CO2 incubator (VWR, USA).
(§2) The compounds found to have good antimicrobial potential were then screened for their cytotoxicity using MTT […]) assay. 1 × 10^4 cells/well were seeded in 100 µl DMEM/MEM, supplemented with 10% FBS in each well of 96-well microculture plates and incubated for 24 h at 37 °C in a CO2 incubator. After incubation, all the prepared/synthesized compounds were added to the cells at 10, 25, 50 and 100 µg concentrations for 48 h. After 48 h of drug treatment, 10 µl MTT (5 mg/ml) was added to each well and the plates were further incubated for 4 h. Then the supernatant from each well was carefully removed, formazan crystals were dissolved in 100 µl of DMSO and absorbance at 570 nm wavelength was recorded on an ELISA reader. The IC50 value was calculated using the linear regression equation i.e. Y = Mx + C. Here, Y = 50, M and C values were derived from the viability graph. The assay was performed in triplicate.

For the next series, the system named is MDA MB 231. As to the kind of experiment: MTT cell proliferation assay. It is filed as cell-based. To be noted: MDA MB 231 breast cancer, 48 h of drug treatment. The method, then: as §1, §2
A further series deals with K562. Description: MTT cell proliferation assay. It is filed as cell-based. To be noted: Homo sapiens, K562 leukemia, 48 h of drug treatment. The protocol:
as §1, §2
On the technique in general: Formazan colour is commonly taken as a measure of viable cells.

Series [1] relates to E. coli. As to the kind of experiment: Minimum bactericidal concentration (MBC). To be noted: Escherichia coli. It is filed as cell-based.
Series [2] has as its system E. coli. As to the kind of experiment: MIC by tube dilution method. It is filed as cell-based. To be noted: Escherichia coli, 24 h, 24 h at 37 °C, read-out: MIC.
In series [3] the test system is S. aureus. As to the kind of experiment: MIC by tube dilution method. It is filed as cell-based. To be noted: Staphylococcus aureus, 24 h at 37 °C, read-out: MIC.
Series [4] has as its system S. enterica. As to the kind of experiment: Minimum bactericidal concentration (MBC). The class given is cell-based. To be noted: Salmonella enterica, read-out: MBC/MFC. The protocol:
After MIC assessment, the indole derivatives (DS1–DS21), were additionally evaluated for MBC and MFC values. […] The 10–15 ml of nutrient agar and Sabouraud dextrose agar was added to the petri plates for bacterial and fungal samples respectively with gentle shaking of plates in order to mix the culture throughout the media. Allowed the media to solidify. The petri plates were then incubated for the predefined time and temperature as referenced already for bacterial and fungal cultures respectively. The plates were then investigated visually for the development of microbial growth. The MBC and MFC were stated as the minimum concentration of the compounds in aliquots showing no visual growth after incubation.

Series [5] has as its system A. niger. Description: MIC by tube dilution method. It is filed as cell-based. To be noted: Aspergillus niger, 168 h, 7 days at 25 °C, read-out: MIC.
For series [6], the system named is S. enterica. As to the kind of experiment: MIC by tube dilution method. It is filed as cell-based. To be noted: Salmonella enterica, 24 h, 24 h at 37 °C, read-out: MIC.
Series [7] relates to A. fumigatus. Description: Minimum fungicidal concentration (MFC). The class given is cell-based. To be noted: Aspergillus fumigatus, read-out: MBC/MFC.
Series [8] deals with A. fumigatus. Description: MIC by tube dilution method. To be noted: Aspergillus fumigatus, 168 h, 7 days at 25 °C, read-out: MIC. It is filed as cell-based.
The subject of series [9] is B. subtilis. Description: Minimum bactericidal concentration (MBC). It is filed as cell-based. To be noted: Bacillus subtilis.
Series [10] concerns A. niger. Description: Minimum fungicidal concentration (MFC). To be noted: Aspergillus niger, read-out: MBC/MFC. It is filed as cell-based.
For series [11], the system named is S. aureus. As to the kind of experiment: Minimum bactericidal concentration (MBC). The class given is cell-based. To be noted: Staphylococcus aureus.
Series [12] has as its system K. pneumonia. Description: Minimum bactericidal concentration (MBC). The class given is cell-based. To be noted: Klebsiella pneumoniae.
The subject of series [13] is K. pneumonia. As to the kind of experiment: MIC by tube dilution method. It is filed as cell-based. To be noted: Klebsiella pneumoniae, 24 h, 24 h at 37 °C, read-out: MIC.
Series [14] deals with B. subtilis. As to the kind of experiment: MIC by tube dilution method. It is filed as cell-based. To be noted: Bacillus subtilis, 24 h at 37 °C, read-out: MIC.
In a further series the test system is HEK-293. As to the kind of experiment: MTT cell proliferation assay, normal cells. The class given is cell-based. To be noted: Homo sapiens, HEK293, HEK-293 normal cells, 48 h of drug treatment. The method, then:
as §1, §2

The mark [15] stands for this setting: Homo sapiens, MDA-MB-231, 48 h, read-out: IC50.

Results on three compounds are retold here after article PMC6661771, “Indole hybridized diazenyl derivatives: synthesis, antimicrobial activity, cytotoxicity evaluation and docking studies” (BMC Chemistry, 2019).

The term IC50 denotes the concentration at which inhibition is half-maximal. By melting point is commonly meant the temperature, or range, at which the solid turns liquid. What is called MIC is the least concentration at which growth counts as inhibited.

Converted amounts (≈) assume the structure as drawn. Read-outs that look alike come from different tables or passages of the source.

With `COc1cccc2c1C(=O)c1c(O)c3c(c(O)c1C2=O)C[C@@](O)(C(=O)CO)C[C@@H]3O[C@H]1C[C@H](N)[C@H](O)[C@H](C)O1` [DOX, doxorubicin, reference compound], the IC50 in the series with HCT 116 stood at 3.37 ± 0.37 µg/mL (≈ 6.2 µM); with MDA MB 231 (setting [15]), 3 µg/mL (≈ 5.52 µM); with MDA MB 231, 3.08 ± 0.95 µg/mL (≈ 5.67 µM); in the series with K562, 2.62 ± 0.65 µg/mL (≈ 4.82 µM).

Compound `CCOC(=O)c1c(/N=C(/C)c2ccc(/N=N\c3c[nH]c4ccccc34)cc2)sc2c1CCCC2` [DS-2, Ethyl 2-((Z)-(1-(4-((Z)-(1H-indol-3-yl)diazenyl)phenyl)ethylidene)amino)-4,5,6,7-tetrahydrobenzo[b]thiophene-3-carboxylate] had a melting point of 260 to 265 °C. This compound also displayed an IC50 in the series with HCT 116 of 117 ± 4.28 µg/mL (≈ 248 µM). In addition, the IC50 in the series on MDA MB 231 (setting [15]) came to 57.6 ± 3.68 µg/mL (≈ 122 µM). This compound also showed an IC50 in the series on K562 of 140 ± 4.4 µg/mL (≈ 298 µM). In addition, the MBC in the series on E. coli [1] stood at 16.2 µg/mL (≈ 34.5 µM). Further, the MIC with E. coli [2] was determined as 15.6 µg/mL (≈ 33.2 µM). In the series on S. aureus [3], the minimum inhibitory concentration (MIC) worked out at 62.5 µg/mL (≈ 133 µM). Also, in the series with S. enterica [4], the MBC worked out at 15.6 µg/mL (≈ 33.2 µM). In addition, the MIC in the series with A. niger [5] is 62.5 µg/mL (≈ 133 µM). Moreover, the MIC with S. enterica [6] was 15.6 µg/mL (≈ 33.2 µM). The MFC in the series with A. fumigatus [7] was found to be 62.5 µg/mL (≈ 133 µM). Further, the MIC with A. fumigatus [8] came out at 15.6 µg/mL (≈ 33.2 µM). The same compound yielded an MBC against B. subtilis [9] of 125 µg/mL (≈ 266 µM). Further, the MFC in the series on A. niger [10] was determined as 125 µg/mL (≈ 266 µM). This compound gave an MBC in the series with S. aureus [11] of 125 µg/mL (≈ 266 µM). Besides, the MBC in the series on K. pneumonia [12] came out at 62.5 µg/mL (≈ 133 µM). Further, the MIC in the series with K. pneumonia [13] amounted to 31.2 µg/mL (≈ 66.4 µM). Besides, the MIC with B. subtilis [14] turned out to be 31.2 µg/mL (≈ 66.4 µM).

In turn, `C/C(=N/c1c(C)n(C)n(-c2ccccc2)c1=O)c1ccc(/N=N\c2c[nH]c3ccc([N+](=O)[O-])cc23)cc1` [DS-6, 1,5-Dimethyl-4-((Z)-(1-(4-((Z)-(5-nitro-1H-indol-3-yl)diazenyl)phenyl)ethylidene)amino)-2-phenyl-1H-pyrazol-3(2H)-one] yielded a melting point of 170 to 175 °C. For the same compound, 139 ± 4.29 µg/mL (≈ 282 µM) corresponded to half-maximal inhibition in the series on HCT 116 (IC50). Besides, the IC50 in the series with MDA MB 231 (setting [15]) was 119 ± 1.92 µg/mL (≈ 241 µM). This compound displayed an IC50 in the series with K562 of 188 ± 1.94 µg/mL (≈ 380 µM). Further, in the series with E. coli [1], the MBC lay in the range of 3.9 to 7.81 µg/mL (≈ 7.9 to 15.8 µM). Moreover, the MIC in the series on E. coli [2] is 1.95 µg/mL (≈ 3.95 µM). Besides, the MIC in the series with S. aureus [3] came to 31.2 µg/mL (≈ 63.3 µM). For the same compound, in the series on S. enterica [4] (S. enterica, MBC), the MBC is 31.2 µg/mL (≈ 63.3 µM). In addition, the MIC in the series on A. niger [5] stood at 62.5 µg/mL (≈ 127 µM). In addition, the MIC with S. enterica [6] amounted to 31.2 µg/mL (≈ 63.3 µM). The MFC in the series with A. fumigatus [7] was determined as 125 µg/mL (≈ 253 µM). Moreover, in the series with A. fumigatus [8], the MIC turned out to be 31.2 µg/mL (≈ 63.3 µM). The MBC in the series on B. subtilis [9] was 62.5 µg/mL (≈ 127 µM). The IC50 in the series on HEK-293 was determined as 257.8 ± 0.57 µg/mL (≈ 522 µM). In addition, in the series on A. niger [10], the MFC stood at 125 µg/mL (≈ 253 µM). Further, in the series on S. aureus [11], the MBC turned out to be 31.2 µg/mL (≈ 63.3 µM). Moreover, the MIC with K. pneumonia [13] is 7.81 µg/mL (≈ 15.8 µM). Further, in the series on B. subtilis [14], the MIC turned out to be 31.2 µg/mL (≈ 63.3 µM).
